Values quoted from earlier work as cited in US20050154022A1, “4-aryl piperidines” (H. Lundbeck A/S, priority 2004, published 2005).

Key:
Settings in all cases: see Borowsky et al. (2002)
guinea pig = tested on: guinea pig
rat [1] = tested on: rat
rat [2] = tested on: rat; remark: listed apart in the source

COCC1=C(C(=O)OC)[C@H](c2ccc(F)c(F)c2)N(C(=O)NCCCN2CCC(c3cccc(NC(C)=O)c3)CC2)C(=O)N1 [SNAP-7941]
effect in guinea pig maternal-separation vocalization test (animal model of depression/anxiety) (guinea pig): effects similar to clinically used antidepressants and anxiolytics
effect in rat forced-swim test (animal model of depression/anxiety) (rat [1]): effects similar to clinically used antidepressants and anxiolytics
effect in rat social interaction test (animal model of depression/anxiety) (rat [2]): effects similar to clinically used antidepressants and anxiolytics
